Values of other authors in patent US20030059487A1, “Composition and method for the treatment of hypercholesterolemia and hyperlipidemia in mammals” (priority 2001, published 2003).

Conditions: background statement on Lipitor

Compound: CC(C)c1c(C(=O)Nc2ccccc2)c(-c2ccccc2)c(-c2ccc(F)cc2)n1CC[C@@H](O)C[C@@H](O)CC(=O)O [atorvastatin]
- raises HDL cholesterol: 5 to 10%
- reduces LDL: 40 to 60%
- reduces triglycerides: 20 to 40%
